Patent US20250282785A1, “PYRROLIDINONE DERIVATIVES AS INHIBITORS OF NF KAPPA B INDUCING KINASE” (priority 2022, published 2025)

Legend:
[1] = molecular target: Recombinant Human NF-Kappab-Inducing Kinase (NIK/MAP3K14) (Homo sapiens, UniProt Q99558); experiment: Inhibition of auto-phosphorylation of recombinant human NIK/MAP3K14 (AlphaScreen); format: biochemical; details: NIK/MAP3K14 auto-phosphorylation, 5 microM ATP, 1 nM enzyme, 2 h at 25° C.; average of values; read-out: Assay 1 IC50
Method: Biological Assay 1: Inhibition of Auto-Phosphorylation of Recombinant Human NF-Kappab-Inducing Kinase (NIK/MAP3K14) Activity (AlphaScreen®)
NIK/MAP3K14 auto-phosphorylation activity was measured using the AlphaScreen® ((αscreen) format (Perkin ElmeR). All compounds tested were dissolved in dimethyl sulfoxide (DMSO) and further dilutions were made in assay buffer. Final DMSO concentration was 0.7% (v/v) in assays. Assay buffer was 50 mM Tris pH 7.5 containing 1 mM EGTA (ethylene glycol tetraacetic acid), 1 mM DTT (dithiothreitol), 0.1 mM Na3VO4, 5 mM MgCl2, 0.01% Tween® 20. Assays were carried out in 384 well Proxiplates (Perkin ElmeR). Incubations consisted of compound, 5 microM Adenosine-5′-triphosphate (ATP), and 1 nM NIK/MAP3K14. Incubations were initiated by addition of GST-tagged NIK/MAP3K14 enzyme, carried out for 2 h at 25° C. and terminated by addition of stop buffer containing anti-phospho-IKK Ser176/180 antibody. Protein A Acceptor and Glutathione-donor beads were added before reading using an EnVision® Multilabel Plate Reader (Perkin ElmeR). Signal obtained in the wells was normalized using high (full enzyme activity, 0.7% DMSO) and low controls (no enzyme activity, 0.7% DMSO, no ATP). IC50's were determined by fitting a sigmoidal curve to % inhibition of control versus Log10 compound concentration.

[2] = test system: p-IKKα levels in L363 (NIK translocated multiple myeloma) cells; experiment: Effect of compounds on p-IKKα levels in L363 cells (AlphaLISA SureFire Ultra); format: cell-based; details: Homo sapiens, L-363; L363 cells, BAFF stimulated, MG132, 6 h; average of values; read-out: Assay 2 IC50
Method: Biological Assay 2: Effect of Compounds on p-IKKα Levels in L363 (NIK Translocated Multiple Myeloma) Cells
All compounds tested were dissolved and serially diluted in DMSO, 1:3 dilution for 11 points in an Echo compatible plate. 100% DMSO is added to columns 12 and 24 of the plate to serve as high and low signal controls. This compound plate was used to spot 20 nl of compound or DMSO into a Greiner 384 well TC plate (781080). Final DMSO concentration was […] (v/v) in cell assays. Human L363 cells (ATCC) were cultured in RPMI 1640 medium supplemented with GlutaMax, non-essential amino acids, sodium pyruvate and 10% fetal bovine serum. Cells were routinely maintained at densities of 0.2×10^6 cells per ml −2×10^6 cells per ml at 37° C. in a humidified 5% CO2 atmosphere incubator. Cells were passaged twice a week splitting back to obtain the low density. The day before the assay, cells were washed twice in HBSS, resuspended in DMEM+0.5% IgG and protease free BSA (Jackson Immuno Research Laboratories), +/−250 ng/ml recombinant human B-cell activating factor (BAFF/BLyS/TNFSF13B) and incubated overnight at 37° C. in a humidified 5% CO2 atmosphere (bulk stimulation with or without BAFF). The next day, cell concentration was adjusted to 1×10^7 cells/ml in DMEM+/−250 ng/ml BAFF+/−10 uM MG132 and plated at 10 ul/well into compound or DMSO spotted 384 well TC plates. Seeded cells were incubated at 37° C. in a humidified 5% CO2 atmosphere for 6 h. After 6 h, plates were removed from the incubator and cell lysis was achieved by the addition of 2.5 μl 5× lysis buffer containing protease and phosphatase inhibitors, followed by shaking on a plate shaker at room temperature for 15 min. At the end of this incubation, lysed cells were sequentially treated and incubated with acceptor and donor bead mixes according to the manufacturer's protocol for a 1 plate/2-incubation suspension cell assay (AlphaLISA SureFire Ultra p-IKKα (Ser 176/180) Assay Kit (Perkin ElmeR). Plates were read using an EnVision® Multilabel Plate Reader (Perkin ElmeR). Within an experiment, a concentration response curve for each compound was run in duplicate. Signal obtained in the test wells was normalized using high signal (BAFF stimulated cells, DMSO, MG132) and low signal (unstimulated cells, DMSO) controls. To determine the IC50, a sigmoidal curve was fitted to the plot of % inhibition versus Log10 compound concentration.

Recombinant Human NF-Kappab-Inducing Kinase (NIK/MAP3K14), sequence (Q99558 whole entry): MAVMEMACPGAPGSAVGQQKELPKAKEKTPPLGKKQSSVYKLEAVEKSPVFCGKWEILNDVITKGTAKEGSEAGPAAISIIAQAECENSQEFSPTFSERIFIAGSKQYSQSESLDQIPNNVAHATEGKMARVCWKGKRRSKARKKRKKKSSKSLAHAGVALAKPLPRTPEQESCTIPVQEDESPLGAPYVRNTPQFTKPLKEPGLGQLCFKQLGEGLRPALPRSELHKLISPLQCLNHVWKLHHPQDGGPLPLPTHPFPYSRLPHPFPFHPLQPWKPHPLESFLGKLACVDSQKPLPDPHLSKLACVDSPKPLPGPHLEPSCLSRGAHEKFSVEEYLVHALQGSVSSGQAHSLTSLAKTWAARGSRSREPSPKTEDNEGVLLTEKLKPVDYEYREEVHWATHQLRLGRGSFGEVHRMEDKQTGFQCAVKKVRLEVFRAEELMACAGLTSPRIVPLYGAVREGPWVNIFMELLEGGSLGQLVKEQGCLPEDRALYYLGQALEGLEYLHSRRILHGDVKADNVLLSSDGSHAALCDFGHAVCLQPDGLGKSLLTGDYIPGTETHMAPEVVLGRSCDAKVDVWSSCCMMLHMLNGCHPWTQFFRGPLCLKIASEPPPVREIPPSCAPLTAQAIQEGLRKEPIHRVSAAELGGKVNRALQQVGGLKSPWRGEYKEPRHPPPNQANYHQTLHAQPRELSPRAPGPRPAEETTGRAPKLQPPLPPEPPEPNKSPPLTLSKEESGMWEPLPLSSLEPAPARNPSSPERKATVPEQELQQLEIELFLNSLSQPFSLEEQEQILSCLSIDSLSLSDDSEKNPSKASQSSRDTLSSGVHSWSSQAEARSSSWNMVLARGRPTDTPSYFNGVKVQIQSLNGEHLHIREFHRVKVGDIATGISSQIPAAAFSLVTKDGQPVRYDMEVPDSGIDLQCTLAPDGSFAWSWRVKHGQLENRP

SMILES: CN1CC[C@@](O)(c2cc(-c3cccc(-c4cccc(C(N)=O)n4)c3)on2)C1=O [Example 18, (R)-6-(3-(3-(3-Hydroxy-1-methyl-2-oxopyrrolidin-3-yl)isoxazol-5-yl)phenyl)picolinamide]
- IC50 [1]: < 100 nM
- IC50 [2]: > 501 nM

SMILES: CN1CC[C@@](O)(c2cc(-c3ccnc(N4CCc5ccnc(N)c5C4)c3)no2)C1=O [Example 20, (R)-3-(3-(2-(8-Amino-3,4-dihydro-2,7-naphthyridin-2(1H)-yl)pyridin-4-yl)isoxazol-5-yl)-3-hydroxy-1-methylpyrrolidin-2-one]
- IC50 [1]: 100 to 500 nM
- IC50 [2]: > 501 nM

SMILES: COc1cc(C(N)=O)nc(-c2cc(-c3cc([C@]4(O)CCN(C)C4=O)on3)ccn2)c1 [Example 21, (R)-4′-(5-(3-Hydroxy-1-methyl-2-oxopyrrolidin-3-yl)isoxazol-3-yl)-4-methoxy-[2,2′-bipyridine]-6-carboxamide]
- IC50 [1]: < 100 nM
- IC50 [2]: > 501 nM

SMILES: CN1CC[C@@](O)(c2cc(-c3ccnc(-n4nc(C(N)=O)c5ccccc54)c3)no2)C1=O [Example 22, (R)-1-(4-(5-(3-Hydroxy-1-methyl-2-oxopyrrolidin-3-yl)isoxazol-3-yl)pyridin-2-yl)-1H-indazole-3-carboxamide]
- IC50 [1]: < 100 nM
- IC50 [2]: < 100 nM

SMILES: CN1CC[C@@](O)(c2cc(-c3cccc(-c4nc(C(N)=O)n5ccccc45)c3)no2)C1=O [Example 23, (R)-1-(3-(5-(3-Hydroxy-1-methyl-2-oxopyrrolidin-3-yl)isoxazol-3-yl)phenyl)imidazo[1,5-a]pyridine-3-carboxamide]
- IC50 [1]: < 100 nM
- IC50 [2]: < 100 nM

SMILES: CN1CC[C@@](O)(c2cc(-c3cccc(-c4c[nH]c5ncccc45)c3)no2)C1=O [Example 24, (R)-3-(3-(3-(1H-Pyrrolo[2,3-b]pyridin-3-yl)phenyl)isoxazol-5-yl)-3-hydroxy-1-methylpyrrolidin-2-one]
- IC50 [1]: 100 to 500 nM
- IC50 [2]: > 501 nM

SMILES: Cc1ncnc2ccc(-c3cccc(-c4cc([C@]5(O)CCN(C)C5=O)on4)c3)nc12 [Example 25, (R)-3-Hydroxy-1-methyl-3-(3-(3-(4-methylpyrido[3,2-d]pyrimidin-6-yl)phenyl)isoxazol-5-yl)pyrrolidin-2-one]
- IC50 [1]: 100 to 500 nM
- IC50 [2]: > 501 nM

SMILES: Cc1cc(-c2cccc(-c3cc([C@]4(O)CCN(C)C4=O)on3)c2)nc2c(N)ncnc12 [Example 26, (R)-3-(3-(3-(4-Amino-8-methylpyrido[3,2-d]pyrimidin-6-yl)phenyl)isoxazol-5-yl)-3-hydroxy-1-methylpyrrolidin-2-one]
- IC50 [1]: < 100 nM
- IC50 [2]: < 100 nM

SMILES: Cc1cc(-c2cccc(-c3cc([C@@]4(O)CCN(C)C4=O)on3)c2)nc2c(N)ncnc12 [Example 27, (S)-3-(3-(3-(4-Amino-8-methylpyrido[3,2-d]pyrimidin-6-yl)phenyl)isoxazol-5-yl)-3-hydroxy-1-methylpyrrolidin-2-one]
- IC50 [1]: > 501 nM
- IC50 [2]: > 501 nM

SMILES: [2H]c1nc(N)c2nc(-c3cccc(-n4cc([C@]5(O)CCN(C)C5=O)nn4)c3)ccc2n1 [Example 35, (R)-3-(1-(3-(4-Aminopyrido[3,2-d]pyrimidin-6-yl-2-d)phenyl)-1H-1,2,3-triazol-4-yl)-3-hydroxy-1-methylpyrrolidin-2-one]
- IC50 [1]: < 100 nM
- IC50 [2]: > 501 nM

SMILES: [2H]c1nc(N)c2nc(-c3cccc(-n4cc([C@@]5(O)CCN(C)C5=O)nn4)c3)ccc2n1 [Example 36, (S)-3-(1-(3-(4-Aminopyrido[3,2-d]pyrimidin-6-yl-2-d)phenyl)-1H-1,2,3-triazol-4-yl)-3-hydroxy-1-methylpyrrolidin-2-one]
- IC50 [1]: 100 to 500 nM
- IC50 [2]: > 501 nM

SMILES: CN1CC[C@](O)(c2cn(-c3cccc(-c4cccc(C(N)=O)n4)c3)nn2)C1=O [Example 42, (S)-6-(3-(4-(3-Hydroxy-1-methyl-2-oxopyrrolidin-3-yl)-1H-1,2,3-triazol-1-yl)phenyl)picolinamide]
- IC50 [1]: > 501 nM
- IC50 [2]: > 501 nM
